Test results published in article PMC12380353, “MK-8527 is a novel inhibitor of HIV-1 reverse transcriptase translocation with potential for extended-duration dosing” (PLOS Biology, 2025).
Several values for one entry are separate records, joined by “and”; a condition that tells them apart may be missing. Equal values may be shown once. Read-outs that look alike come from different tables or passages of the source.

Legend:
HIV-1 subtypes = details: for Fold-Change in IC50 vs CNDO control virus: listed as MK-8527
Description: Compounds were evaluated for antiviral activity against a panel of clinical isolates representing multiple HIV-1 subtypes at Monogram Biosciences (South San Francisco, CA, USA). The isolates were selected based on an absence of resistance-associated mutations in RT and each was constructed as a pooled resistance test vector designed to preserve the quasispecies present in the initial clinical isolate.

[1] = system: panel of 114 enzyme and receptor binding assays; assay: Off-target panel of 114 enzyme and receptor-binding assays; details: for Off-target activity: 10 μM, panel of 114 assays; for IC50: tested at 10 µM, 114 assays, read-out: IC50 in all off-target assays
Description: MK-8527 and MK-8527-TP were evaluated at 10 µM final concentration at Eurofins Panlabs (Taipei, Taiwan) for activity against a panel of 114 enzyme, radioligand binding, and cellular assays, including 70 G-protein coupled receptor, 13 ion channel, 7 kinase, 7 nuclear hormone receptor, 6 transporter, 4 protease, 2 neurotransmitter metabolism, 2 lipid metabolism, 2 oxidoreductase, and 1 phosphodiesterase assays.

[2] = Uptake and phosphorylation assay in PBMCs; format: in vitro ADME, human; details: PBMCs incubated with 0.21 nM MK-8527
Description: To determine the amount of MK-8527 phosphorylated forms produced after treatment of PBMCs, uptake and phosphorylation assays were performed. PBMCs were activated with 5 µg/mL PHA in RPMI 1640, 10% FBS, 100 units/mL penicillin, and 100 µg/mL streptomycin at 1.2 × 10^6 cells/mL. All incubations were in a humidified incubator at 37 °C and with 5% CO2. After 3–4 days in culture, media containing PHA were removed by centrifugation at 300g for 10 min. Cells were resuspended at 2 × 10^6 cells/mL in RPMI 1,640, 10% NHS, 100 units/mL penicillin, 100 µg/mL streptomycin, and 20 units/mL IL-2. A total of 7.5 × 10^6 to 2 × 10^7 cells were transferred to a miniature bioreactor tube. […]
The intracellular concentration of MK-8527-TP was determined by an LC–MS/MS assay. […] Quantification was performed by monitoring the transitions of m/z 548.9 to 169.1 for MK-8527-TP. […] The method’s lower limit of quantification was between 1 and 5 nM depending on the assay volumes of cell suspension. Analyte concentrations in cell samples across species were determined from the standard curves using linear regression with 1/×2 weighting.
Concentrations of intracellular phosphorylated forms were expressed in picomoles per 10^6 cells by using the molar concentration of each compound as determined by LC–MS/MS and the number of viable cells included in each 100-µL sample.

human DNA polymerase β = human DNA polymerase β (Homo sapiens, UniProt P06746); assay: Human DNA polymerase β inhibition assay; format: biochemical; details: highest concentration tested 200 µM
Description: The activities of human DNA polymerases α, β, and γ were measured in radiolabeled nucleotide incorporation assays. TP was prepared as a 10-point titration with 3-fold serial dilution in water. Reaction buffers for the DNA polymerase α and β assays both contained 20 mM Tris pH 7.5, 10 mM MgCl2, 50 μM EDTA, 200 μg/mL bovine serum albumin (BSA), 2 mM dithiothreitol (DTT), 1.6 μM each of dNTP (dATP, dCTP, dGTP, and dTTP), 20 μCi/mL [α33P]dATP, 0.1 mg/mL gapped activated fish sperm DNA template, test compound, and 0.005 U/μL DNA polymerase α or 0.0025 U/μL DNA polymerase β. The reaction buffer for DNA polymerase γ contained 20 mM Tris pH 8, 10 mM MgCl2, 50 mM KCl, 100 μg/mL BSA, 2 mM β-mercaptoethanol, 10 μM of each dNTP (dATP, dCTP, dGTP, and dTTP), 20 μCi/mL [α33P]dATP, 0.04 mg/mL gapped activated fish sperm DNA template, test compound, and 0.0003 μg/μL DNA polymerase γ. The 50-μL reactions were incubated at room temperature for 30 min (for β and γ) or 90 min (for α) before terminating with the addition of 50 μL 500 mM EDTA. The reaction mixtures were transferred to a Millipore DE81 filter plate (EMD Millipore; Hayward, CA), washed with 0.5 M sodium phosphate pH 7.0, and dried. After addition of 40 μL scintillant to each well, the incorporation of labeled dATP was determined with a microplate counter (TopCount NXT HTS; PerkinElmer, Shelton, CA, USA).

| Compound | Geometric Mean fold-change (HIV-1 subtypes; WT Subtype A) | Geometric Mean fold-change (HIV-1 subtypes; WT Subtype A1) | Fold-Change in IC50 vs CNDO control virus (HIV-1 subtypes; WT Subtype A1 clinical isolates) | Geometric Mean fold-change (HIV-1 subtypes; WT Subtype AE) | Geometric Mean fold-change (HIV-1 subtypes; WT Subtype AG) | Geometric Mean fold-change (HIV-1 subtypes; WT Subtype B) | Geometric Mean fold-change (HIV-1 subtypes; WT Subtype BF) | Geometric Mean fold-change (HIV-1 subtypes; WT Subtype C) | Geometric Mean fold-change (HIV-1 subtypes; WT Subtype D) | Geometric Mean fold-change (HIV-1 subtypes; WT Subtype F1) | Geometric Mean fold-change (HIV-1 subtypes; WT Subtype G) | Geometric Mean fold-change (HIV-1 subtypes; WT Subtype H) | Fold-Change in IC50 vs CNDO control virus (HIV-1 subtypes; WT Subtype H clinical isolates) | Off-target activity [1] | IC50 [1] [µM] | Intracellular MK-8527-TP level by LC–MS/MS [2] | Inhibitory activity (human DNA polymerase β) |
| --- | --- | --- | --- | --- | --- | --- | --- | --- | --- | --- | --- | --- | --- | --- | --- | --- | --- |
| C#C[C@]1(CO)O[C@@H](n2ccc3c(N)nc(Cl)nc32)C[C@@H]1O [Compound 12, (2R,3S,5R)-5-(4-amino-2-chloro-7H-pyrrolo[2,3-d]pyrimidin-7-yl)-2-ethynyl-2-(hydroxymethyl)tetrahydrofuran-3-ol] | 1.0 | 0.9 | 0.96 and 0.93 and 0.73 | 0.6 | 1.0 | 0.9 | 0.8 | 1.0 | 0.7 | 0.8 | 0.752 | 0.55 | 0.72 and 0.42 | no off-target activities | > 10 | – | – |
| C#C[C@]1(COP(=O)(O)OP(=O)(O)OP(=O)(O)O)O[C@@H](n2ccc3c(N)nc(Cl)nc32)C[C@@H]1O [MK-8527-TP] | – | – | – | – | – | – | – | – | – | – | – | – | – | no off-target activities | > 10 | below the limit of quantitation | no inhibitory activity |
